Experimental data published in publication PMC2229834 (Molecular Microbiology, 2007).

Legend:
[1] = target: T1, E. coli PTPS (EcPTPS) (Escherichia coli, UniProt P65870); experiment: HPLC with fluorescence of iodine-oxidised pterin products; assay type: biochemical; conditions: 9 uM DHNTP, 10 mM MgCl2, 2 mM DTT, pH 8.0, 37 C, 1 h
T1 sequence (P65870 1-121): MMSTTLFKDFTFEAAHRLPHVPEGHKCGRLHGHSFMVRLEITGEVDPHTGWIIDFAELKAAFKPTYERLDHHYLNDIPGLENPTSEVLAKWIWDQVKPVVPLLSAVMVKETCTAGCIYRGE

[2] = target: T2, human PTPS (HsPTPS) (Homo sapiens, UniProt Q03393); experiment: as above; assay type: biochemical; conditions: 9 uM DHNTP, 10 mM MgCl2, 2 mM DTT, pH 8.0, 37 C, 1 h
T2 sequence (Q03393 1-145): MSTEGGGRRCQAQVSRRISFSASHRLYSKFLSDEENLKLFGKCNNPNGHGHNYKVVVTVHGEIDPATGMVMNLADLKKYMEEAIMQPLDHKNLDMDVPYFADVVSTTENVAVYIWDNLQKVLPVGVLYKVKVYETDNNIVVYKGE

With `Nc1nc2c(c(=O)[nH]1)N=C([C@H](O)[C@H](O)COP(=O)(O)OP(=O)(O)OP(=O)(O)O)CN2` [DHNTP] the “HPLC with fluorescence of iodine-oxidised pterin products” value [1] was “Both the bacterial and human enzymes converted DHNTP to PTP as expected” and the “HPLC with fluorescence of iodine-oxidised pterin products” value [2] was “Both the bacterial and human enzymes converted DHNTP to PTP as expected”.
